This note sets out measurements from patent publication US7196199B2, “Phenoxypropylamine compounds” (Mitsubishi Pharma Corporation, priority 1999, dated 2007).

The target in series [1] is T1, 5-HT1A receptor (Rattus norvegicus, UniProt P19327).
T1 sequence (P19327 1-422): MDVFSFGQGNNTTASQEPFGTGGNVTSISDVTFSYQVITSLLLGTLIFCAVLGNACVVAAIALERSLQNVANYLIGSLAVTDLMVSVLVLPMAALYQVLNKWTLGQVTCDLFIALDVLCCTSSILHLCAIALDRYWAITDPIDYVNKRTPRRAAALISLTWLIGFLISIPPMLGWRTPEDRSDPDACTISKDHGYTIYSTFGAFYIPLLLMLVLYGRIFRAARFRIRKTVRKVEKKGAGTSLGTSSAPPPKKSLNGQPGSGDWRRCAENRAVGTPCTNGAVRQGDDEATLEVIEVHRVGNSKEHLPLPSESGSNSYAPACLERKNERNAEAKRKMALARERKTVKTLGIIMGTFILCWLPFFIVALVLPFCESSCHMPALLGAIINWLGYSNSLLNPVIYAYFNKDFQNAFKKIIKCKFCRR
Description: 5-HT1A receptor binding test. The settings on record: rat hippocampus membrane, (3H)-8-OH-DPAT 2 nM; read-out: 5-HT1A receptor binding Ki value. As to the method: The experiment was conducted according to the method of M. D. Hall et al (J. Neurochem. 44, 1685–1696 (1985)).
Cryopreserved rat hippocampus was homogenized in a 20-fold wet weight amount of 50 mM Tris-HCl buffer (pH 7.4), and the homogenate was centrifuged at 500×g for 10 min. The supernatant was centrifuged at 40000×g for 10 min and the sediment was incubated at 37° C. for 10 min, which was followed by centrifugation at 40000×g for 10 min. To the sediment was added a 20-fold amount of 50 mM Tris-HCl buffer (pH 7.4) and the mixture was homogenized, which was followed by centrifugation again at 40000×g for 10 min. 50 mM Tris-HCl buffer (pH 7.4, 100-fold volume) containing 1 mM MnCl2 was added to the sediment and the mixture was homogenized, which was used as a membrane solution. To a 96 well plate were successively added a test solution ([…]), (^3H)-8-OH-DPAT ((±)-8-hydroxy-2-(DL-N-propylamino)tetraline, Sigma, lot No. 57H4131) solution (final concentration 2 nM, […]) and the membrane solution (0.45 ml) preincubated at 37° C., and incubated at 37° C. for 12 min. After completion, the reaction mixture was filtered through a GF/B glass filter and the filter was washed 5 times with 50 mM Tris-HCl buffer (pH 7.4). The radioactivity left on the filter was measured with a Top Count. For total binding measurement, 0.005N hydrochloric acid ([…]) was used, and for the measurement of nonspecific binding, a test solution containing WAY-100635 (final concentration […]) instead of the test substance was used. The total binding and nonspecific binding were measured in quadruplicate, and the test substance was measured in duplicate.
The IC50 value was calculated by two-point interpolation and Ki value was calculated according to the following equation using Kd value obtained from each measurement. Ki=IC50/(1+C/Kd)
IC50: concentration of 50% binding inhibition
C: concentration of ligand

The target of series [2] is T1, 5-HT1A receptor. The series is described as follows: Electrophysical evaluation of agonist/antagonist of 5-HT1A receptor (nystatin perforated patch clamp, dorsal raphe nuclei cell). The settings on record: 10^−7 mol/L, isolated rat dorsal raphe nuclei cell; for antagonistic action (% of control) of the test substance on the 8-OH-DPAT induced inward K+ current: 8-OH-DPAT 10^−7 mol/L. Further details: The isolated nerve cell (dorsal raphe nuclei cell) was subjected to nystatin perforated patch clamp method; endogenous in cells; host or cells: acutely dissociated dorsal raphe nuclei neurons of 2-week-old male Wistar rat. It is filed as cell-based. As to the method:
The experiment followed the method of Katayama et al (Brain Res.; 745, 283–292, 1997).
The brain of 2-week-old male Wistar rat was extracted, and a brain thin section (thickness 350 μm) containing dorsal raphe nuclei was prepared using a microslicer. The brain thin section was treated in Ringer's solution containing pronase (0.4 mg/mL) and protease type X (0.25 mg/mL) at 30° C. for 25 min and 15 min, respectively, and the dorsal raphe nuclei region was micropunched out. The brain thin section punched out was subjected to pipetting in a culture dish filled with the Ringer's solution to isolate the nerve cell. The isolated nerve cell (dorsal raphe nuclei cell) was subjected to nystatin perforated patch clamp method (Akaike & Harata, Jpn. J. Physiol.; 44, 433–437, 1994) and the inward K^+ current induced by the test substance and the like was measured under membrane voltage-clamp condition (VH=−60 mV). For the measurement of the inward K^+ current via the 5-HT1A receptor, an extracellular solution and a patch pipette solution having the following compositions were used simultaneously. • extracellular solution (mmol/L): NaCl, 135; KCl, 20; MgCl2, 1; CaCl2, 2; D-glucose, 10; HEPES, 10; tetrodotoxin, 3×10^−4; LaCl3, 10 • patch pipette solution (mmol/L): KCl, 150; HEPES, 10
To the above-mentioned patch pipette solution was added nystatin. (Sigma, Lot No. 33H0762) to the final concentration of 75 μg/mL before the electric measurement.
The current response was measured with a voltage clamp amplifier (List Medical, L/M-EPC7), and the obtained results were recorded on a chart of a recticorder (Nihondenki Sanei, RECTIHORIZ-8K), digitized by a PCM recording device (NF electric Instruments, RP-882) and videotaped by a VCR (Panasonic, NV-G40).
The administration of the test substance and the like followed a Y-tube method (Murase et al., Brain Res.; 525, 84–91, 1990).
First, 8-OH-DPAT (10^−7 mol/L) was administered to the isolated nerve cell (dorsal raphe nuclei cell) obtained above, and the level of the inward K^+ current response was measured.
8-OH-DPAT was washed out for 2 min from the above-mentioned cells and the test substance and pindolol (reference substance which is an antagonist) were administered for 1 min, and the level of the inward K^+ current response by each of them was measured. From immediately after administration of the test substance or the reference substance, a mixture of 8-OH-DPAT ([…]) and the test substance or reference substance was administered, and the level of the induced inward K^+ current response was measured. The measurement results and the level of the current response in the same cell by 8-OH-DPAT alone were compared, based on which the antagonistic action on the 8-OH-DPAT induction current was considered. Every current response was expressed upon standardizing according to the following calculation equation based on the level of the 8-OH-DPAT (10^−7 mol/L) induction current in the same cell.
The inward K^+ current response inducing action (5-HT1A agonistic action) by the test substance alone was determined from the following equation. inward K^+ current response inducing action (%) by test substance alone=(ITD÷IDPAT)×100 • ITD: level of inward K^+ current response by test substance alone • IDPAT: level of 8-OH-DPAT (10^−7 mol/L) induced inward K^+ current in the same cell
The suppressive effect (5-HT1A antagonistic action) on the 8-OH-DPAT induced inward K^+ current by the test substance was determined according to the following equation. antagonistic action of test substance on 8-OH-DPAT induced inward K^+ current (% of control)=(IMIX÷IDPAT)×100
IMIX: level of 8-OH-DPAT (10^−7 mol/L) induced inward K^+ current in the presence of test substance

Another series addresses T2, 5-HT transporter (Rattus norvegicus, UniProt P31652).
T2 construct: Rat brain cortex was homogenized using Polytron; from tissue; host or cells: rat brain cortex membranes
The series is described as follows: 5-HT transporter binding test. The following applies: rat brain cortex membrane, (3H) paroxetine 0.2 nmol/L; read-out: 5-HT transporter binding Ki value. As to the method: Rat brain cortex was homogenized using Polytron in ice-cooled 50 mmol/L Tris-HCl buffer (pH 7.4). After centrifugation at 1000×g and 4° C. for 10 min, the supernatant was transferred to a different centrifugation tube. This was centrifuged at 40000×g and 4° C. for 20 min, and 50 mmol/L Tris-HCl buffer (pH 7.4) was added to the sediment to give a suspension. This was incubated at 37° C. for 10 min, centrifuged at 40000×g and 4° C. for 20 min, and suspended in 50 mmol/L Tris-HCl buffer (pH 7.4) (diluted 100-fold of brain wet weight) containing 120 mmol/L NaCl and 5 mmol/L KCl, which was used as a membrane solution. For binding inhibition test, it was reacted with (^3H) paroxetine prepared to the final concentration of 0.2 nmol/L in a plastic test tube at 25° C. for 90 min. For total binding, a solvent was used and for nonspecific binding, fluvoxamine having a final concentration of 10 μmol/L was used.
Using a cell harvester, the reaction mixture was filtered through a GF/B glass filter treated with 0.1% polyethyleneimine to stop the reaction and washed 3 times with 3 mL of ice-cooled 50 mmol/L Tris-HCl buffer (pH 7.4). The radioactivity was measured using a β plate.

Structures are written as SMILES. Structures can show the parent of a compound that is named as a salt.

T2 sequence (P31652 whole entry): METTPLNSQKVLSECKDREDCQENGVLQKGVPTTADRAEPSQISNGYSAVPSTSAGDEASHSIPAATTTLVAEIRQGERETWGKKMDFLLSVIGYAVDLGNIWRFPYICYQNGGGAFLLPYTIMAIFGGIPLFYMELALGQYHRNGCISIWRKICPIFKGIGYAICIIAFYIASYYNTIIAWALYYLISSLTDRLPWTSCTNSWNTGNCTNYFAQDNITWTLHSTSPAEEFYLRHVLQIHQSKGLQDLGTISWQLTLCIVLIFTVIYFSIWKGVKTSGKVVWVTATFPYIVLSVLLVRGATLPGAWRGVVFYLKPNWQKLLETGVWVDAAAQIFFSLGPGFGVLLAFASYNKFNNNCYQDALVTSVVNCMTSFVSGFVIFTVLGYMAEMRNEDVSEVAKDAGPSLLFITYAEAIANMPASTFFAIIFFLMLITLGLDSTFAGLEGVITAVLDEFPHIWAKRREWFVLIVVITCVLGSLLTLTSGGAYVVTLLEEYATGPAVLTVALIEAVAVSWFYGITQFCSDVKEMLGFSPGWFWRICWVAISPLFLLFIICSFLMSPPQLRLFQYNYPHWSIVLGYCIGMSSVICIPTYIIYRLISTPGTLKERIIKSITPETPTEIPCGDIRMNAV

As for `COc1ccc(C2CCN(C[C@H](O)COc3cccc4oc(-c5nnc(C)o5)cc34)CC2)cc1Cl.Cl`, the melting point lay within 218 to 220 °C.
Consider `Cc1nnc(-c2cc3c(OC[C@@H](O)CN4CCC(c5ccc(Cl)c(C)c5)CC4)cccc3o2)o1.Cl`, for which the melting point is 184 to 186 °C.
Same read-out and setting: the same measure for `Cc1nnc(-c2cc3c(OC[C@@H](O)CN4CCC(c5ccc(Cl)c(F)c5)CC4)cccc3o2)o1.Cl`: 139 to 141 °C; for `Cc1nnc(-c2cc3c(OC[C@@H](O)CN4CC=C(c5ccc6ccoc6c5)CC4)cccc3o2)o1.Cl`: 135 to 138 °C; for `C=C(C)c1nnc(-c2cc3c(OC[C@@H](O)CN4CCC(c5ccc6c(c5)OCO6)CC4)cccc3o2)o1.Cl`: 128 to 130 °C.
Regarding `Cc1nnc(-c2cc3c(OC[C@@H](O)CN4CCC(c5ccc(C)c(Cl)c5)CC4)cccc3o2)o1` (as salt: hydrochloride), the melting point was 188 to 190 °C.
On the same count and under the same terms, the same measure for `Cc1nnc(-c2cc3c(OC[C@@H](O)CN4CCC(c5ccc6c(c5)CCCS6)CC4)cccc3o2)o1` (as salt: hydrochloride): 223 to 225 °C.
On the same count and under the same terms, the same measure for `Cc1nnc(-c2cc3c(OC[C@@H](O)CN4CCC(c5ccc(Cl)c(C(F)(F)F)c5)CC4)cccc3o2)o1` (as salt: hydrochloride) [Example 234, (S)-1-(4-(4-chloro-3-trifluoromethylphenyl)piperidino)-3-(2-(5-methyl-1,3,4-oxadiazol-2-yl)benzo(b)furan-4-yloxy)-2-propanol hydrochloride]: 222 to 224 °C.
As to `CON(C)C(=O)c1cc2c(OC[C@@H](O)CN3CCC(c4ccc5ccccc5c4)CC3)cccc2o1` [Example 6, (S)-4-(2-hydroxy-3-(4-(naphthalen-2-yl)piperidino)propyloxy)-N-methoxy-N-methylbenzo(b)furan-2-carboxamide], the Ki at 5-HT1A receptor [1] came to 2.3 nM. In addition, at 5-HT1A receptor [2], the “antagonistic action (% of control) of the test substance on the 8-OH-DPAT induced inward K+ current” value is “almost nil”, the “agonist/antagonist character at 5-HT1A receptor” value (from here on “agonist/antagonist character”) is given as “silent antagonists” and the “inward K+ current inducing action (%) by the test substance alone” value (shortened to “inward K+ current inducing action (%)”) was “almost nil”. Moreover, the Ki at 5-HT transporter is 1.1 nM.
With `Cc1nnc(-c2cc3c(OC[C@@H](O)CN4CCC(c5ccc(Cl)c(Cl)c5)CC4)cccc3o2)o1` [Example 88, (S)-1-(4-(3,4-dichlorophenyl)piperidino)-3-(2-(5-methyl-1,3,4-oxadiazol-2-yl)benzo(b)furan-4-yloxy)-2-propanol hydrochloride 1/4 hydrate], on 5-HT1A receptor [1], the Ki is 0.75 nM. In addition, at 5-HT1A receptor [2], the “antagonistic action (% of control) of the test substance on the 8-OH-DPAT induced inward K+ current” value is reported as “almost nil”, the “agonist/antagonist character” value is given as “silent antagonists” and the “inward K+ current inducing action (%)” value is on record as “almost nil”. Also, the Ki at 5-HT transporter worked out at 0.32 nM.
Consider `OCc1nnc(-c2cc3c(OC[C@@H](O)CN4CCC(c5ccc(Cl)c(Cl)c5)CC4)cccc3o2)o1` [Example 136, (S)-3-(4-(3,4-dichlorophenyl)piperidino)-1-(2-(5-hydroxymethyl-1,3,4-oxadiazol-2-yl)benzo(b)furan-4-yloxy)-2-propanol], for which the Ki on 5-HT1A receptor [1] worked out at 0.37 nM. Moreover, at 5-HT1A receptor [2], the “antagonistic action (% of control) of the test substance on the 8-OH-DPAT induced inward K+ current” value was “almost nil”, the “agonist/antagonist character” value is listed as “silent antagonists” and the “inward K+ current inducing action (%)” value was “almost nil”. Besides, at 5-HT transporter, the inhibition constant Ki was 0.18 nM.
`Cc1nnc(-c2cc3c(OC[C@@H](O)CN4CC=C(c5ccc6occc6c5)CC4)cccc3o2)o1` [Example 238, (S)-1-(4-(benzo(b)furan-5-yl)-5,6-dihydro-2H-pyridin-1-yl)-3-(2-(5-methyl-1,3,4-oxadiazol-2-yl)benzo(b)furan-4-yloxy)-2-propanol] yielded a melting point of 168 to 170 °C.
